Test results: patent US20040265288A1, “New applications of gene therapy technology” (priority 1995, published 2004)
Where two headings read alike, the source gives them in different places.

Tests used:
[1] = tested on: FKBP12-containing fusion proteins (3xFKBP-p65 / ZFHD1-3xFKBP transcription factors); assay: Dimerizer-regulated gene expression (SEAP or hGH reporter) in transfected cells; format: cell-based, human; settings: for activation of transcription with stably integrated constructs: cells in which transcription factor and reporter gene constructs are all stably integrated
Procedure: To screen clones it is convenient to transiently transfect cells in a 96-well format. Lipofectamine is used to introduce 50 ng total DNA/96-well under conditions recommended by the manufacturer (Gibco/BRL). If introducing both the transcription factor and target gene plasmids transiently, use 20 ng of each plasmid and 10 ng of carrier DNA (it may be necessary to optimize plasmid ratios and transfection conditions for each cell type). If only introducing one plasmid, bring to 50 ng with carrier DNA.
Following transfection, add medium +/−100 nM AP1510 dimerizer (or try a range of concentrations).
After overnight incubation (or longer), assay for target gene expression.
Secreted alkaline phosphatase activity can be easily measured from the supernatant of appropriately transfected cells using fluorescence-(see (10)), or chemiluminescence-(Tropix, Bedford, Mass.) based assays. Samples to be tested should first be incubated at 65° C. for 1 hour to inactivate endogenous alkaline phosphatase activity.
In gene regulation applications, expression becomes detectable at an AP1510 concentration of approximately 10 nM, and peaks at approximately 100 nM. When SEAP or hGH reporter systems are used, expression can be easily detected after an overnight incubation with dimerizer. In our experience, the efficacy is generally similar for other dimerization applications. A range of concentrations from 1 nM to 1 uM will typically provide a good dose-response profile in both cases.

[2] = tested on: transmembrane receptors that are activated by oligomerization; assay: Dimerization of transmembrane receptors; format: cell-based
cells = assay: Toxicity to cells; format: cell-based
[3] = Solubility in aqueous culture medium; format: physicochemical; settings: serial dilution in (aqueous) culture medium
Procedure: Working concentrations of AP1510 can be obtained by adding compound directly from ethanol stocks, or by diluting serially in culture medium just before use. In the latter case it is recommended that the highest concentration not exceed 5 uM, to ensure complete solubility in the (aqueous) medium. In either case, the final concentration of ethanol in the medium added to mammalian cells should be kept below 0.5% (a 200-fold dilution of a 100% ethanol solution) to prevent detrimental effects of the solvent on the cells.

[4] = Immunosuppressive activity of dimerizer
[5] = linker positioned in the calcineurin binding domain of FK506; cited from earlier work
FKBP12 = FKBP12 (Homo sapiens, UniProt P62942); settings: linker positioned in the calcineurin binding domain of FK506; cited from earlier work
[6] = gene regulation applications, SEAP or hGH reporter, overnight incubation with dimerizer

FKBP12, sequence (P62942 whole entry, the tested form may be a part): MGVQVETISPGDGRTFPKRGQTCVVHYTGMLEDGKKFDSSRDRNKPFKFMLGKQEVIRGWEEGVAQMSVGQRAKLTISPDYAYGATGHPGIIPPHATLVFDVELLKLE

dimerization of transmembrane receptors [2]	highest concentration ensuring complete solubility in medium [3] [µM]	immunosuppressive activity [4]	Compound	activation of transcription with stably integrated constructs [1]	activation of transcription compared with FK1012 ([1]; gene regulation applications)	AP1510 concentration at which expression becomes detectable [1, 6]	AP1510 concentration at which expression peaks [1, 6]	toxicity to cells (cells)	immunosuppressive activity [5]	FKBP12 binding (FKBP12)
successfully used to dimerize	≤ 5	no immunosuppressive activity	CCC(C)(C)C(=O)C(=O)N1CCCC[C@H]1C(=O)O[C@H](CCc1ccc(OC)c(OC)c1)c1cccc(OCC(=O)NCCNC(=O)COc2cccc([C@@H](CCc3ccc(OC)c(OC)c3)OC(=O)[C@@H]3CCCCN3C(=O)C(=O)C(C)(C)CC)c2)c1 [AP1510]	activates transcription efficiently	at lower concentrations and to a higher level than FK1012	approximately 10 nM	approximately 100 nM	non-toxic to cells	–	–
–	–	–	FK1012	poor	–	–	–	–	abolishes immunosuppressive activity	unaffected
